Reference: publication PMC9858427, “Design, synthesis and biological evaluation of 2-((4-sulfamoylphenyl)amino)-pyrrolo[2,3-d]pyrimidine derivatives as CDK inhibitors” (Journal of Enzyme Inhibition and Medicinal Chemistry, 2023)
One block for each compound: values may come before it.

Experiments:
MIA PaCa-2 cells [1] = assay: MTT proliferation assay in MIA PaCa-2 cells; type: cell-based, human; details: Homo sapiens, MIA PaCa-2, 72 h, 72 h drug exposure
Procedure: (§1) The human pancreatic carcinoma MIA PaCa-2 was purchased from China Centre for Type Culture Collection, AsPC-1 and BxPC-3 cell Lines were purchased from Cell Centre of the Institute of Basic Medical Sciences, Chinese Academy of Medical Sciences and Peking Union Medical College. PANC-1 was kindly provided by Nankai Hospital (Tianjin, China). These cancer cell lines were cultured according to the manufacturer’s instruction.
(§2) Then 3-fold diluted concentrations of tested compound were added respectively which was dissolved by DMSO in the ratio of 1:1000. After indicated incubation period, MTT was added to each well and incubated for 4 h at 37 °C. Then, the supernatant was discarded gently, and the precipitate was dissolved in 100 µL of DMSO in each well. The absorbance (A) at 570 nm was detected with a microplate reader (Multiskan MK3; Thermo Fisher Scientific, MA, USA). Vehicle-treated cells were served as the control for the calculation of relative cell viability (%) of treated group at single concentration. IC50 value was calculated directly from the inhibition curve of serial dilution of test compound and was expressed as mean ± SD using the SPSS statistical software (SPSS17.0 Inc., Chicago, IL, USA).

AsPC-1 = assay: MTT proliferation assay in AsPC-1 cells; type: cell-based; details: Homo sapiens, ASPC1; 72 h drug exposure
Procedure: as §1
as §2, with “Cells were planted in 96-well plates at a density of 3000–4000 cells per well and incubated at 37 °C in a humidified CO2 incubator for 24 h. Then 3-fold” for “Then 3-fold”

BxPC-3 = assay: MTT proliferation assay in BxPC-3 cells; type: cell-based; details: Homo sapiens, 72 h drug exposure
Procedure: as §1
as §2, with “Cells were planted in 96-well plates at a density of 3000–4000 cells per well and incubated at 37 °C in a humidified CO2 incubator for 24 h. Then 3-fold” for “Then 3-fold”

PANC-1 = assay: MTT proliferation assay in PANC-1 cells; type: cell-based; details: Homo sapiens, 72 h drug exposure
Procedure: as §1
as §2, with “Cells were planted in 96-well plates at a density of 3000–4000 cells per well and incubated at 37 °C in a humidified CO2 incubator for 24 h. Then 3-fold” for “Then 3-fold”

CDK9/cyclinT1 = CDK9/cyclinT1 (Homo sapiens, UniProt P50750); assay: CDK9/cyclinT1 Lance Ultra Assay, single concentration screen; type: biochemical; details: 50 nM, ATP concentration at Km, read-out: CDK9 inhibitory rate (%) @ 50nM
Procedure: (§3) CDK kinase activity (IC50 values and inhibitory rate at single concentration) was measured using the kinase profiling services (Shanghai ChemPartner Co., Ltd). Compounds were sent to ChemPartner as a solution in DMSO at concentration of 10 mM.

CDK1 [2] = biological target: T1, CDK1 (Homo sapiens, UniProt P06493); assay: CDK1 kinase IC50, Mobility shift assay; type: biochemical
Procedure: as §3

CDK2 [3] = biological target: T2, CDK2 (Homo sapiens, UniProt P24941); assay: CDK2 kinase IC50, Mobility shift assay; type: biochemical
Procedure: as §3

CDK4 [4] = biological target: T3, CDK4 (Homo sapiens, UniProt P11802); assay: CDK4 kinase IC50, Mobility shift assay; type: biochemical
Procedure: as §3

CDK7 [5] = biological target: T4, CDK7 (Homo sapiens, UniProt P50613); assay: CDK7 kinase IC50, Mobility shift assay; type: biochemical
Procedure: as §3

CDK9 [6] = biological target: T5, CDK9 (Homo sapiens, UniProt P50750); assay: CDK9 kinase IC50, Mobility shift assay; type: biochemical
Procedure: as §3

CDK1 [7] = biological target: T1, CDK1; assay: CDK kinase screening at 1 μM, CDK1; type: biochemical; details: read-out: Inhibitory rate at 1μM: CDK1
Procedure: as §3

CDK2 [8] = biological target: T2, CDK2; assay: CDK kinase screening at 1 μM, CDK2; type: biochemical; details: read-out: Inhibitory rate at 1μM: CDK2
Procedure: as §3

CDK3 = CDK3 (Homo sapiens, UniProt Q00526); assay: CDK kinase screening at 1 μM, CDK3; type: biochemical; details: read-out: Inhibitory rate at 1μM: CDK3
Procedure: as §3

CDK4 [9] = biological target: T3, CDK4; assay: CDK kinase screening at 1 μM, CDK4; type: biochemical; details: read-out: Inhibitory rate at 1μM: CDK4
Procedure: as §3

CDK5 = CDK5 (Homo sapiens, UniProt Q00535); assay: CDK kinase screening at 1 μM, CDK5; type: biochemical; details: read-out: Inhibitory rate at 1μM: CDK5
Procedure: as §3

CDK6 = CDK6 (Homo sapiens, UniProt Q00534); assay: CDK kinase screening at 1 μM, CDK6; type: biochemical; details: read-out: Inhibitory rate at 1μM: CDK6
Procedure: as §3

CDK7 [10] = biological target: T4, CDK7; assay: CDK kinase screening at 1 μM, CDK7; type: biochemical; details: read-out: Inhibitory rate at 1μM: CDK7
Procedure: as §3

CDK8 = CDK8 (Homo sapiens, UniProt P49336); assay: CDK kinase screening at 1 μM, CDK8; type: biochemical; details: read-out: Inhibitory rate at 1μM: CDK8
Procedure: as §3

CDK9 [11] = biological target: T5, CDK9; assay: CDK kinase screening at 1 μM, CDK9; type: biochemical; details: read-out: Inhibitory rate at 1μM: CDK9
Procedure: as §3

MIA PaCa-2 cells [12] = test system: MIA PaCa-2 cells; set-up: method as in PMID 33316409; details: previous study ref 23; cited from earlier work
[13] = test system: AsPC-1 cell-derived xenograft; assay: AsPC-1 cell-derived xenograft mice model, in vivo efficacy; set-up: species or system BALB/C nude mice; details: GCTB 50 mg/kg intraperitoneal once a week, 3 weeks; vs vehicle group
Procedure: Synthetic compound was administered as a suspension or solution in the saline with 5% DMSO and 5% Solutol. GCTB was dissolved in saline. All of the experiments were approved by the Institutional Animal Care and Use Committee of Institute of Medicinal Biotechnology. All experiments were carried out under ethics committee–approved protocols and in compliance with the guidelines for the care of laboratory animals of Institute of Medicinal Biotechnology, CAMS.
AsPC-1 (5 × 10^7) cells were injected subcutaneously into 5-week-old female BALB/C nude mice (Beijing Huafukang Bioscience CO. Inc, Beijing, China). After two weeks, mice were omogenizamised and treated with vehicle, gemcitabine (GCTB), or test compound. Blank solvent and test compound was administered by oral gavage (10 ml/kg) with once daily of five days and followed by 2 days off in each week, GCTB was given once a week by 50 mg/kg intraperitoneal injection. Mice were inspected daily for clinical signs, both tumour diameters and body weight were determined 3 times weekly. Tumour volumes were calculated according to the formula “tumor volume (V) = length × width^2/2”. Median TGI values were calculated as follows: TGI = 100 × [1-(Vtreated group at day20-Vtreated group at day1)/(Vvehicle group at day20-Vvehicle group at day1)]. Data were plotted as average with SD in the graphical representation of tumour growth. The p values obtained from the two-way ANOVA analysis. Meanwhile, main organs of mice were collected, formalin-fixed and paraffin-embedded for pathological analysis by H&E dyeing. For drug concentration determination, blood and tumour tissues were collected at indicated time after single administration. Standard curve of test compound was established in the acquisition mode of SIM using a SHIMADZU LC-MS instrument. […] After centrifugation at 10 × 10^3 for 5 min, the supernatant was injected directedly into LC-MS instrument for quantification of drug concentration. […] After centrifugation under same condition as plasma samples, supernatant was separated and injected into LC-MS for quantification.

[14] = Body weight and H&E pathology of main organs in xenograft mice; type: in vivo, BALB/C nude mice; details: after 3-week treatment
Procedure: AsPC-1 (5 × 10^7) cells were injected subcutaneously into 5-week-old female BALB/C nude mice (Beijing Huafukang Bioscience CO. Inc, Beijing, China). After two weeks, mice were omogenizamised and treated with vehicle, gemcitabine (GCTB), or test compound. Blank solvent and test compound was administered by oral gavage (10 ml/kg) with once daily of five days and followed by 2 days off in each week, GCTB was given once a week by 50 mg/kg intraperitoneal injection. Mice were inspected daily for clinical signs, both tumour diameters and body weight were determined 3 times weekly. Tumour volumes were calculated according to the formula “tumor volume (V) = length × width^2/2”. Median TGI values were calculated as follows: TGI = 100 × [1-(Vtreated group at day20-Vtreated group at day1)/(Vvehicle group at day20-Vvehicle group at day1)]. Data were plotted as average with SD in the graphical representation of tumour growth. The p values obtained from the two-way ANOVA analysis. Meanwhile, main organs of mice were collected, formalin-fixed and paraffin-embedded for pathological analysis by H&E dyeing. For drug concentration determination, blood and tumour tissues were collected at indicated time after single administration. Standard curve of test compound was established in the acquisition mode of SIM using a SHIMADZU LC-MS instrument. Blood kept in anticoagulant tube coated with heparin sodium was centrifuged to provide the supernatant, which was followed by added with 3-fold acetonitrile to precipitate plasma protein. After centrifugation at 10 × 10^3 for 5 min, the supernatant was injected directedly into LC-MS instrument for quantification of drug concentration. As for tumour tissues, omogenizationation (Precellys Evolution) was done after weighed accurately and added with 3-fold saline. After centrifugation under same condition as plasma samples, supernatant was separated and injected into LC-MS for quantification.

T3 sequence (P11802 whole entry): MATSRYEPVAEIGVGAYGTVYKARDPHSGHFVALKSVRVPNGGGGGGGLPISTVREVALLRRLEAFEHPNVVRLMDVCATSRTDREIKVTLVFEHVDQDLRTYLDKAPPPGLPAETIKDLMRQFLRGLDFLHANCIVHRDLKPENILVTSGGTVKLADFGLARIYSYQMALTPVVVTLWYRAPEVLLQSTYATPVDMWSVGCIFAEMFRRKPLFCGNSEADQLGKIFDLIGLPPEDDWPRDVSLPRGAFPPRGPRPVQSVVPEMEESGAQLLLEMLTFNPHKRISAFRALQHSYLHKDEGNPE
T3 sequence (P30281 whole entry partner): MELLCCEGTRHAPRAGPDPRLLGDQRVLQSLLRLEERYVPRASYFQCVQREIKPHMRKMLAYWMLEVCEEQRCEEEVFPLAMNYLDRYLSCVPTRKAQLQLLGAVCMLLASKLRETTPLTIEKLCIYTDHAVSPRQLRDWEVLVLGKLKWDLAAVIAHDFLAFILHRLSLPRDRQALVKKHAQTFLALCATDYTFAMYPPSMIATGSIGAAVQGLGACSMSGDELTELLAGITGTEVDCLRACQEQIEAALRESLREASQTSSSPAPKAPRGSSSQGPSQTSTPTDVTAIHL
T1 sequence (P06493 whole entry): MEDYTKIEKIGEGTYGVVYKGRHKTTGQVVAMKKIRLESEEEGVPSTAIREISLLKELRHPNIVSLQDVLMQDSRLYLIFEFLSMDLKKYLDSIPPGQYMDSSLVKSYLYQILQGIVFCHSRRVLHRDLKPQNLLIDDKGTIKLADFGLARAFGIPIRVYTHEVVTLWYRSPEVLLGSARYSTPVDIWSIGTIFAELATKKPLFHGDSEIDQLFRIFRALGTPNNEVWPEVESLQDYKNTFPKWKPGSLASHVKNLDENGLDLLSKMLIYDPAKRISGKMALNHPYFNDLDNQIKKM
T1 sequence (P14635 whole entry partner): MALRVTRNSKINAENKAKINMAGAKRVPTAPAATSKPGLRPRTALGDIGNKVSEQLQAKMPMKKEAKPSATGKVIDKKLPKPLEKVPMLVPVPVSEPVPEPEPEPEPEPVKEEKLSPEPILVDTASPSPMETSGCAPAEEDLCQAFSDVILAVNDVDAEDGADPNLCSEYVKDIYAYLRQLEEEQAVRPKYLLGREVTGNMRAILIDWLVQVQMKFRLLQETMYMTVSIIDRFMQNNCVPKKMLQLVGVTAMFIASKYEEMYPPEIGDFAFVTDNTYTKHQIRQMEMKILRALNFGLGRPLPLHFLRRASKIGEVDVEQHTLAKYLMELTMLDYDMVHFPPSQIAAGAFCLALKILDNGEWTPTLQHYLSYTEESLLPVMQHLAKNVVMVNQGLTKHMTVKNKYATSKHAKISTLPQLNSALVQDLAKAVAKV
T5 sequence (P50750 whole entry): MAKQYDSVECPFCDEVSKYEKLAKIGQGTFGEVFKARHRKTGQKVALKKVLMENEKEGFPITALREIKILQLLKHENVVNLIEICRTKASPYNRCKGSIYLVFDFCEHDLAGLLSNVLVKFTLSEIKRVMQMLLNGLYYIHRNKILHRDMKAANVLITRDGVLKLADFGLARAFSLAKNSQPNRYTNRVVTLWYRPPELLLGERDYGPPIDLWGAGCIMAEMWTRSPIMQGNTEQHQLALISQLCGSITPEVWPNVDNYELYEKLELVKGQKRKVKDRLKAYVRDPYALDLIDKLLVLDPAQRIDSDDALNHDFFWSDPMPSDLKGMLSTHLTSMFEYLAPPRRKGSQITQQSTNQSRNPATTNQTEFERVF
T5 sequence (O60563 whole entry partner): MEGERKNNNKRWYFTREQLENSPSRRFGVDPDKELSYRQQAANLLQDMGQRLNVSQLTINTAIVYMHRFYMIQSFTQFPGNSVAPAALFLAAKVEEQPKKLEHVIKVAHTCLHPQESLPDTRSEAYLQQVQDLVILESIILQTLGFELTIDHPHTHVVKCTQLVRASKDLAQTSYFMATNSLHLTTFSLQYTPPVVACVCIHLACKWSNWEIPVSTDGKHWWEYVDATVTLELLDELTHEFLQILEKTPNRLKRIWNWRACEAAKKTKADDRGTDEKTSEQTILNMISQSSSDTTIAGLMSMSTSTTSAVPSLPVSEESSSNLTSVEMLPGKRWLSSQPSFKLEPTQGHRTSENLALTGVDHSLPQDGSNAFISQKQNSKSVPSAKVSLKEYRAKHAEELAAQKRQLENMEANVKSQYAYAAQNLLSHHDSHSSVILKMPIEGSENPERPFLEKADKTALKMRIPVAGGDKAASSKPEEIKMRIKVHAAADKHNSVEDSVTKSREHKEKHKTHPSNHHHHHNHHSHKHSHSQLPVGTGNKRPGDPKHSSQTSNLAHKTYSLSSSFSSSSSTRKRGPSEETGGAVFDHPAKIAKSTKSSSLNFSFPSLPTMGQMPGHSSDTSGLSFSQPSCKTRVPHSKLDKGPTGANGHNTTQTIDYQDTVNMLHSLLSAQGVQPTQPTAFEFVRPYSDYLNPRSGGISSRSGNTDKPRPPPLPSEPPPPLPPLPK
T4 sequence (P50613 whole entry): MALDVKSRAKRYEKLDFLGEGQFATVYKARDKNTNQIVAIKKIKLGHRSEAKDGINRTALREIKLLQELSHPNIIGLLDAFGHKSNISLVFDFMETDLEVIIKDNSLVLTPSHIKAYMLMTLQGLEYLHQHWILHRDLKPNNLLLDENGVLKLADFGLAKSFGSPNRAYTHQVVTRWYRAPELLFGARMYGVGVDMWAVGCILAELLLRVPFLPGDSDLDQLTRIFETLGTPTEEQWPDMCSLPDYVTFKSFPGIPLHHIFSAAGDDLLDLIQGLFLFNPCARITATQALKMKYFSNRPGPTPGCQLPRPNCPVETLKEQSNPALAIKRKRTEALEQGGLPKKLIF
T4 sequence (P51946 whole entry partner): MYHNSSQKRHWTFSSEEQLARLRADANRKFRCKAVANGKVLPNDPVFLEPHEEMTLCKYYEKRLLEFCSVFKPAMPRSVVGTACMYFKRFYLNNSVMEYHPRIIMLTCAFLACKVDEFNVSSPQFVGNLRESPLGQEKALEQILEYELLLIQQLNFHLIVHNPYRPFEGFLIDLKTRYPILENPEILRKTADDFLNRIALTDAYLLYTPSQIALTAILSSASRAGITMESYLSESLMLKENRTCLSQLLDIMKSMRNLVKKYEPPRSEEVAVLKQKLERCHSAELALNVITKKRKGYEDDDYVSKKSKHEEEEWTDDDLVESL
T4 sequence (P51948 whole entry partner): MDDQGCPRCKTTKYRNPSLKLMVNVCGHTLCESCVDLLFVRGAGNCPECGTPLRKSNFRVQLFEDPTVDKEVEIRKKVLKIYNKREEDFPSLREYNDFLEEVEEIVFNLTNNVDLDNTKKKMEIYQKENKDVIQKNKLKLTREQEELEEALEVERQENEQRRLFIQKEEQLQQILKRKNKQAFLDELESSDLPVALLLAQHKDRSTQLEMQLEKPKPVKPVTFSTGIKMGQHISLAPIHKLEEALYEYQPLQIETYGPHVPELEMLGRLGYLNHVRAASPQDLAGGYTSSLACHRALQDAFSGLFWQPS
Chain of CDK5 (Q00535 whole entry): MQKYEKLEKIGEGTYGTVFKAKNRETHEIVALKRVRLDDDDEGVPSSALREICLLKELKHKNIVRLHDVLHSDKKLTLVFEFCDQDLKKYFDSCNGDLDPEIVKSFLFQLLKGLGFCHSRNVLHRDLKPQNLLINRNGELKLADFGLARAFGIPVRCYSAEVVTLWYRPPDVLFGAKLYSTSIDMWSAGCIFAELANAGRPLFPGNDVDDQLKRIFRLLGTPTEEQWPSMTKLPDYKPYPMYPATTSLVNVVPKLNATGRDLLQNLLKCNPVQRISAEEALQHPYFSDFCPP
Chain of CDK5 (Q15078 99-307 partner limits assumed): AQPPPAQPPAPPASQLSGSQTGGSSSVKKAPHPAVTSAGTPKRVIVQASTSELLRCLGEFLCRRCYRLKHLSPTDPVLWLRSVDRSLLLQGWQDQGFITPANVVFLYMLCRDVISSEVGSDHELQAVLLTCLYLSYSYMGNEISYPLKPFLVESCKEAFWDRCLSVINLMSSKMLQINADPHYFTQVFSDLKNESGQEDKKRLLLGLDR
Chain of CDK3 (Q00526 whole entry): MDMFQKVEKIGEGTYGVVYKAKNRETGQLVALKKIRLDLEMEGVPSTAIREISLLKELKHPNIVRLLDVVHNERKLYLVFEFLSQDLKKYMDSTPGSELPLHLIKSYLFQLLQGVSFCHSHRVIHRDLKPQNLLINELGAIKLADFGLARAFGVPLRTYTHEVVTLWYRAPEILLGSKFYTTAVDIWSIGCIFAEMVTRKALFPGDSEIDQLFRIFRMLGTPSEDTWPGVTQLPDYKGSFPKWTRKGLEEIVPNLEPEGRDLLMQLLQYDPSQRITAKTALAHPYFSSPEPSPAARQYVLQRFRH
Chain of CDK3 (P24864 whole entry partner): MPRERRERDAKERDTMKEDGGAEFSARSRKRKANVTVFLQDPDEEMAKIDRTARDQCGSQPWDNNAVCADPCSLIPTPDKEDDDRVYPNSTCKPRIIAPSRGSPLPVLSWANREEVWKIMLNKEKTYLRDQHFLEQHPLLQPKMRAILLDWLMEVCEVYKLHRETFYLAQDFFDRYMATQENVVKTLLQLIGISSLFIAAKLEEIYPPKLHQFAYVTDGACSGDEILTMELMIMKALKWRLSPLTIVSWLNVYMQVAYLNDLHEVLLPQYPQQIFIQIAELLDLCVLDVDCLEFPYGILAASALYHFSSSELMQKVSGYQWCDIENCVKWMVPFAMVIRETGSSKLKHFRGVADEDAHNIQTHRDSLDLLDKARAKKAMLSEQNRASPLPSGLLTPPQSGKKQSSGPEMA
Chain of CDK9/cyclinT1 (P50750 whole entry): as the sequence (P50750 whole entry) above
Chain of CDK9/cyclinT1 (O60563 whole entry partner): as the sequence (O60563 whole entry partner) above

IC50 (MIA PaCa-2 cells [1]): 4.98 ± 2.68 µM | IC50 (AsPC-1): 2.6 ± 0.997 µM | IC50 (BxPC-3): 0.409 ± 0.06 µM | IC50 (PANC-1): 3.68 ± 2.5 µM | inhibition at 0.05 µM (CDK9/cyclinT1): 98.6% | IC50 (CDK1 [2]): 516 nM | IC50 (CDK2 [3]): 91.6 nM | IC50 (CDK4 [4]): 89 nM | IC50 (CDK7 [5]): > 10000 nM | IC50 (CDK9 [6]): 5.6 nM | inhibition at 1 µM (CDK1 [7]): 65.2% | inhibition at 1 µM (CDK2 [8]): 94.4% | inhibition at 1 µM (CDK3): 84.5% | inhibition at 1 µM (CDK4 [9]): 89.2% | inhibition at 1 µM (CDK5): 72.1% | inhibition at 1 µM (CDK6): 78.1% | inhibition at 1 µM (CDK7 [10]): 5.3% | inhibition at 1 µM (CDK8): 0.8% | inhibition at 1 µM (CDK9 [11]): 99%
SMILES: Cc1cc(C)nc(NS(=O)(=O)c2ccc(Nc3ncc4cc(C(=O)N(C)C)n(C5CCCC5)c4n3)cc2)n1 [compound 1]
effect on cell cycle (MIA PaCa-2 cells [12]): G2-arrested effect

IC50 (MIA PaCa-2 cells [1]): 1.04 ± 0.27 µM | IC50 (AsPC-1): 0.956 ± 0.14 µM | IC50 (BxPC-3): 0.388 ± 0.119 µM | IC50 (PANC-1): 5.79 ± 4.21 µM
SMILES: Nc1ccn([C@@H]2O[C@H](CO)[C@@H](O)C2(F)F)c(=O)n1 [GCTB, gemcitabine, reference compound]
tumour growth inhibition (TGI) [13]: 36% | pathological change in main organs (H&E) [14]: no obvious pathological change
